Results: patent US20110189174A1, “COMPOSITIONS AND METHODS FOR TREATING, REDUCING, AMELIORATING, ALLEVIATING, OR INHIBITING PROGRESSION OF, PATHOGENIC OCULAR NEOVASCULARIZATION” (priority 2010, published 2011)

Legend:
[1] = system: laser-induced CNV in monkeys; assay: Laser-induced choroidal neovascularization in monkeys, fluorescein angiography lesion grading; format: in vivo, cynomolgus monkeys (Macaca fascicularis); conditions: intravitreal, both eyes, days 1 and 15, 1.5 mg/eye (Lucentis 0.5 mg/eye)
Method: Study was performed in three phases. In phases Ia and Ib, the behavior of the suspension in aqueous (Ia) and oil (Ib) formulations, and multiple dosing regimens as well as any adverse effect due to multiple dosing at 3 mg/eye (Ia) or 1.5 (Ib) were investigated. In phase II test articles were administered twice during the study period on days 1 and 15. Eyes were examined with an indirect ophthalmoscope and fundus camera.
Adult male cynomolgus monkeys (Macaca fascicularis) age 2-7 years old were used to test the efficacy of BOL-303050-X, BOL-303054-X and BOL-303055-X. Lucentis® (ranibizumab) was used as historic control.
Both eyes of 46 monkeys were examined at baseline and then 42 animals were randomized into 5 groups. On Phase II Day 8 of Dosing, the animals were anesthetized with ketamine and dexmedetomidine and the macula of each eye of the animals in Groups 1 through […] underwent laser treatment by a retinal surgeon with a 532 nm diode green laser (OcuLight GL, IRIDEX Corp. Inc., Mountain View, Calif.) using a slit lamp delivery system and a Kaufman-Wallow (Ocular Instruments Inc, Bellevue, Wash.) plano fundus contact lens with Gonak (2.5%) as the coupling agent. Nine laser spot areas were symmetrically placed in the macula of each eye. The laser parameters included a 75 micron spot size and 0.1 second duration. The power setting used was assessed by the ability to produce a blister and a small hemorrhage. […] For areas not adjacent to the fovea, the initial power setting was 500 mW; if a second spot was placed, the power was set to 650 mW. For the area adjacent to the fovea the power settings were 400 mW (initial treatment) and 550 mW (second treatment). At the discretion of the retinal surgeon, power settings were adjusted based on observations at the time of laser. Power setting used for each spot was documented as well as number of burns per spot and whether hemorrhage occurred.
(§1) Once the phase Ib study was completed, and it was established that the drug suspension in oil would not interfere with either laser administration, evaluation of CNV or cause adverse effects, phase II was initiated. On days 1, and 15 both eyes of monkeys received 50 μL of Lucentis (0.5 mg/eye), vehicle (0 mg/eye), BOL-303050-X (1.5 mg/eye), BOL-303054-X (1.5 mg/eye) or BOL-303055-X (1.5 mg/eye) (Table 2). Intravitreous injection was performed for each by eye aiming towards mid-vitreous body. Dosing in the right eye was alternated for successive doses (as applicable) at approximately the 11 o'clock and 10 o'clock positions. Dosing in the left eye was alternated for successive doses (as applicable) from approximately the 1 o'clock and 2 o'clock positions.
Animals were anesthetized with ketamine and dexmedetomidine. A topical anesthetic (0.5% proparacaine) was instilled in each eye before dose administration. A wire speculum was used to retract the eyelids. The eyes were cleaned with a 2.5% povidone iodine solution and then rinsed with sterile saline. Each animal was dosed using 1 cc tuberculin syringes and 30 gauge needles.
FA was performed at baseline, on days 22, 29 and 37 (approximately 14, 21 and 28 days post-laser). Digital ocular photographs were taken in conjunction with FA. The FA procedure is well known by people skilled in the art of ophthalmology.
Evaluation of FA was done according to the following grading system for evidence of excessive permeability (fluorescein leakage) or any other abnormalities.
Grade IV lesions are considered to be clinically significant as these most closely resemble the active forms of classical CNV seen in various human retinal disorders, including age-related macular degeneration. Comparison of the incidence of Grade IV lesions between treatment groups was evaluated.
Grade IV lesions were analyzed using either Fisher's exact probability test (2-Tail) or Chi square test (χ2). […]

[2] = Clinical ophthalmic examination in monkeys (vitreal cell scores, anterior chamber inflammation); format: in vivo, cynomolgus monkeys (Macaca fascicularis); conditions: cynomolgus monkey, in vivo
Method: as §1
Animals were examined at baseline, on days 1, 3, 7, 15, and 31 of Dosing Phase II and on the day of scheduled sacrifice (day 38). On days of dose administration the ophthalmic examination was done prior to dosing.

[3] = system: human retinal endothelial cells (HREC); assay: Testing 7: VEGF-induced HREC proliferation (MTS assay), integrin antagonists and Lucentis alone and in combination; format: cell-based; conditions: Lucentis 1 ng/mL
Method: HREC were first cultured overnight in a 96-well plate coated with fibronectin. The next day medium containing different agents as shown in Tables 14 and 15 was pre-incubated for 1 hour before being added into appropriate wells. The cells were cultured at 37° C., 5% CO2, and 95% humidity for another 3 days. After that, cell proliferation was estimated by the MTS assay. In the first study we used VEGF 10 ng/mL (about EC80 in study PH08169), Lucentis® 1 ng/mL (about EC25 in study PH09038) and 5 doses of BOL-303055-X. Normal IgG (1 ng/ml) was also added to groups containing no Lucentis®. All groups contained the same amount of 0.1% DMSO. In the second study, all five compounds (BOL-303049-X, BOL-303050-X, BOL-303051-X, BOL-303054-X and BOL-303055-X) were tested at 1 nM with other conditions remaining the same.
A 96-well plate was coated with human fibronectin (10 μg/mL) for 5 hours at 37° C. HREC were washed with HBSS buffer once, tripsinized and re-suspended in 10% FBS CS-C medium at 18,000 cells/mL. Cells (200 μL) were added to the plate and cultured overnight at 37° C., 5% CO2, and 95% humidity. Next day, the cells were serum-starved for 2 hours.
For study I, VEGF at 10 ng/mL, Lucentis® at 1 ng/mL and BOL-303055-X at 0.1, 0.3, 1, 3 and 10 nM were prepared in 1% FBS CS medium as shown in Table 14. Normal IgG (1 ng/mL) were added to groups containing no Lucentis®. All medium solutions were incubated for 1 hour at 37° C. After carefully medium was aspirated, 200 μL of the medium containing different agents were then added into appropriate wells. The cells were cultured for another 3 days. For the study II as shown in the Table 15, five compounds were tested at 1 nM with other conditions remaining the same as study I.
At the end of incubation, the medium was carefully aspirated from cells and 120 μl of MTS working solution was added into all wells including blank wells (without cells). The plates were incubated at 37° C., 5% CO2, and 95% humidity for 1 hour and then read by a plate reader at 490 nm wavelength.
Median optical density (OD) was generated from different groups. Data were expressed as mean±SEM of the OD values. Statistical analysis was performed using three-way ANOVA after Box-Cox transformations, and p<0.05 was considered statistically significant. To evaluate whether the effects of the combinations were either synergistic or additive, net inhibitions were calculated by subtracting the basal levels in the presence of VEGF from the individual treatments (Lucentis® and Integrin blockers) and the combinations. […] Data analysis was performed utilizing the statistical analysis software JMP (SAS Institute, Cary, N.C.).

[4] = intravitreal, wet AMD, cited from earlier work

## ranibizumab [Lucentis, reference compound]
[1]; Day 22
  Incidence of CNV lesions, Lesion Grade I (% Total): 97:126 (76.98) %
  Incidence of CNV lesions, Lesion Grade II (% Total): 20:126 (15.87) %
  Incidence of CNV lesions, Lesion Grade III (% Total): 9:126 (7.14) %
  Incidence of CNV lesions, Lesion Grade IV (% Total): 0:126 (0) %
[1]; Day 29
  Incidence of CNV lesions, Lesion Grade I (% Total): 96:126 (76.19) %
  Incidence of CNV lesions, Lesion Grade II (% Total): 22:126 (17.46) %
  Incidence of CNV lesions, Lesion Grade III (% Total): 8:126 (6.35) %
  Incidence of CNV lesions, Lesion Grade IV (% Total): 0:126 (0) %
[1]; Day 37
  Incidence of CNV lesions, Lesion Grade I (% Total): 118:126 (93.65) %
  Incidence of CNV lesions, Lesion Grade II (% Total): 8:126 (6.35) %
  Incidence of CNV lesions, Lesion Grade III (% Total): 3:126 (1.85) %
  Incidence of CNV lesions, Lesion Grade IV (% Total): 0:126 (0) %
[2]
  Vitreal cell score: number of eyes with grade 4: 0
[3]; VEGF 10 ng/mL
  Reduction of VEGF-induced HREC proliferation: 15-20%
[3]; basal and Lucentis-treatment conditions, BOL-303055-X 0.1-10 nM, other compounds 1 nM
  HREC proliferation without VEGF: did not alter HREC proliferation
[4]; at 1 year
  Patients who maintained visual acuity: 95%
[4]
  Patients with improvement in vision of at least 3 lines: 40%
